The values that follow come from article PMC6387968, “An in vitro ADME and in vivo Pharmacokinetic Study of Novel TB-Active Decoquinate Derivatives” (Frontiers in Pharmacology, 2019).

One series can be described thus: physchem. Conditions: pH 7.4. The class given is physicochemical. The protocol:
The plate was agitated for 2 h at 22°C and 500 rpm. […] The different layers were analyzed to obtain a logD value.

Series [1] is described as follows: in vitro. The class given is in vitro ADME. As for the experimental part:
Compound solutions prepared in DMSO were diluted in phosphate buffer (final concentration = 1 μg/mL), and were spiked into human plasma and microsomal fractions (total volume = 1 mL). Aliquots were then transferred in duplicate to: (i) a final concentration plate that was immediately quenched with 23.6 ng/mL internal standard (IS, carbamazepine) in ACN, (ii) a degradation control, which was placed in a water bath at 37°C for 4 h, and (iii) ultracentrifuge tubes, which were centrifuged for 4 h at 37°C and 30 000 × g. All reactions were stopped by the addition of ACN containing 23.6 ng/mL carbamazepine. The samples were subjected to liquid chromatography-tandem mass spectrometry (LC-MS/MS) analysis on an AB Sciex 4000 Q Trap hybrid triple quadrupole linear ion-trap MS (AB Sciex, Framingham, MA, United States) coupled to an Agilent 1200 HPLC (Agilent) with a reverse-phase Gemini-C18 analytical column (5 μm, 50 mm × 2 mm; Phenomenex) at 35°C. Mobile phases comprised 0.1% FA in water, and 0.1% FA in ACN. The flow rate was 600 μL/min with a run time of 6 min. A gradient elution was employed (Table 2).

The nature of series [2]: in vitro. Particulars: for EH (hepatic extraction ratio) Human / EH (hepatic extraction ratio) Mouse: 0.1 M; for half-life at 0.1 M / microsomal CLint at 0.1 M: microsomes. The format is in vitro ADME. As for the experimental part:
RMB041, -043, and -073 ([…]) prepared in DMSO were incubated separately with 530 μL mouse and human microsomes (0.4 mg/mL) at 37°C with the cofactor NADPH (1 mM). Compounds were assessed at 0 and 60 min. The reaction was stopped by the addition of ice-cold ACN containing IS (carbamazepine, 23.6 ng/mL). The samples were analyzed via LC-MS/MS using the instrumentation and conditions described above. The in vitro half-life, intrinsic clearance rate, and hepatic extraction ratio were predicted using results from this assay in the following equations ([Obach, 1999]). […] EH=Fu × CLint/QH+Fu × CLint Metabolic stability was assessed as the compound's depletion from a starting concentration of […] over 1 h in mouse and human microsomal fractions. The in vitro half-life can be predicted from this assay. The linear regression from a graph relating natural logarithmic percentage of the compound remaining versus the incubation time was used to calculate the half-life, CLint, and EH.

Another series is described as follows: in vivo. Particulars: for Vd / clearance / half-life / t1/2 / Cmax / Tmax: male, C57BL/6, mouse; for AUC: mouse. More on the design: species or system male C57BL/6 mice. As for the experimental part:
Healthy male C57BL/6 mice, 12 to 16 weeks old, weighing approximately 30 g, were maintained at the animal facility of the University of Cape Town. Mice were fed a standard laboratory diet and water ad libitum. Mice were housed in 27 × 21 × 18 cm cages, under controlled environmental conditions (26 ± 1°C with 12-h light/dark cycles). Mice were acclimatized to their experimental environment for 4 days before the experiment started.
Clear suspensions of RMB041, -043, and -073 were prepared in […] hydroxypropyl methylcellulose and administered via oral gavage (20 mg/kg, volume = 200 μL, n = 3). Blood samples (20 μL) were collected on ice in heparinized microvials via tail bleeding at 0, 0.5, 1, 3, 5, 8, 10, 24, and 48 h following drug administration and stored at -80°C.
Solutions for IV injection (5 mg/kg) were prepared using a mixture of dimethyl acetamide, polyethylene glycol, and polypropylene glycol (1:3:6, v/v) and were injected into the penile vein (80 μL) following anesthesia of mice with intraperitoneal injection (IP) of ketamine/xylazine (75–100 mg/kg + 10 mg/kg; n = 3). Blood samples were collected on ice in heparinized microvials via tail bleeding at 0.083, 0.5, 1, 3, 5, 8, 10, 24, and 48 h following drug administration and stored at -80°C.
Mouse whole-blood samples (20 μL) were each treated with 100 μL ACN containing IS (carbamazepine, 1 μg/mL) to precipitate blood proteins, and were subjected to vigorous vortexing for 1 min and centrifugation at 5590 × g for 5 min. The supernatant layer containing compound (50 μL) was removed from each sample and added to the analysis plate. Thereafter, samples were dried down under nitrogen. A solution of ACN and water (1:1, v:v, 100 μL) was added to each well, and samples were analyzed via LC-MS/MS.
To determine compound concentrations in mouse whole-blood samples, seven calibration samples (range 0.980 to 4000 ng/mL), as well as low-, medium-, and high-concentration quality control (QC) samples (3, 1600, and 3200 ng/mL, respectively) were prepared in mouse blood and subjected to ACN precipitation as described above, in triplicate. Calibration, QC, and test samples were analyzed via LC-MS/MS. Calibration samples were used to plot standard curves, from which test sample concentrations were calculated via quadratic regression (weighting factor = 1/x).
A reverse-phase HPLC column (Gemini NX, C18, 2.6 μm, 50 × 2.1 mm, Phenomenex) was used to separate the compounds and IS (mobile phase B, 0.1% FA in ACN; mobile phase A, 0.1% FA in analytical-grade water). Auto-sampling was performed using an Agilent 1200 series auto-sampler. Data acquisition and evaluation were performed using the Analyst 1.6.2 software (Applied Biosystems, Foster City, CA, United States).
Plots of concentration against time were used to determine the maximal drug concentration (Cmax), time at which Cmax is reached (Tmax), area-under-the-curve from time zero to infinity (AUC0-∞), and the elimination half-life (t1/2). Using these values, the clearance, volume of distribution, and oral bioavailability (BA) were calculated using the non-compartmental analysis (NCA) software PK Solutions version 2.0 (Summit Research Services, Montrose, CO, United States).
The drug concentrations indicated in Figure 2–7 were used to calculate the PK parameters in Table 6 via NCA. Here, the area under the murine whole-blood concentration-time graph is divided into sequential trapezoids that are summed to determine the AUC, which is used to determine t1/2, apparent volume of distribution (Vd), clearance, and percentage BA.

Another series deals with Mtb H37Rv. On the set-up: method as in Beteck et al., 2018. Conditions: in vitro, Mtb H37Rv; ref Beteck et al., 2018; cited from earlier work.
Series [3] has as its system Chinese hamster ovarian (CHO) cell-lines. Particulars: cited from earlier work.
Where [4] appears, read: human, plasma, Plasma protein (fraction unbound).
[5] abbreviates: human, plasma, percentage plasma protein binding.

By logD is commonly meant lipophilicity at a set pH, counting ionised and neutral species. The fraction unbound is free concentration divided by total concentration. As usually defined, the half-life is how long it takes for the measured level to halve. The low end stands for fast loss, the high end for slow loss. By microsomal CLint is commonly meant a measure of how fast metabolising enzymes remove a compound, apart from limits set by blood flow. Usually Vd stands for a proportionality between amount in the body and measured concentration, not a real space. What is called clearance is the volume of plasma or blood freed of the substance per unit of time. Read a low clearance as a low capacity for elimination. By Cmax is commonly meant the maximum level reached in the sampled fluid or tissue. As a reminder, the Tmax is the time from dosing to the highest level. Usually AUC stands for the area under the concentration-time curve, a measure of exposure. Read a high AUC as more exposure. One may read the IC50 as the concentration that gives 50% inhibition. With `CCCCCCCCCCOc1cc2c(=O)c(C(=O)NCCOCCO)cn(CC)c2cc1OCC` [RMB041], the logD in “physchem” turned out to be 0.48. The fraction unbound at 4 h, 1 μg/mL in “in vitro [1]” (human, microsomes) was 0.053. The same compound gave a fraction unbound at 4 h, 1 μg/mL in the series “in vitro [1]” (setting [4]) of 0.1. Further, in “in vitro [1]” (setting [5]), the fraction unbound at 4 h, 1 μg/mL is 0.104. The compound further displayed a fraction unbound at 4 h, 1 μg/mL in “in vitro [1]” (microsomes) of 0.06. Also, in the series “in vitro [2]”, the “EH (hepatic extraction ratio) Human” value is less than 0.43 and the “EH (hepatic extraction ratio) Mouse” value was less than 0.3. In the series “in vitro [2]” (human), this compound showed a half-life at 0.1 M greater than 2.5 h and a microsomal CLint at 0.1 M of 16 µL/min/mg. Besides, in the series “in vitro [2]” (mouse), the half-life at 0.1 M was greater than 2.5 h and the microsomal CLint at 0.1 M was found to be 26.8 µL/min/mg. Besides, in “in vivo” (iv, 5 mg/kg), the Vd stood at 1.2 ± 0.03 L/kg, the clearance was 0.385 mL/min/kg, the half-life is 62.3 ± 6.73 h and the “t1/2” value amounted to 62.3 ± 6.7 h. In addition, the AUC in the series “in vivo” (iv, 5 mg/kg) stood at 29250.4 ± 309.0 µmol·min/L. Further, in “in vivo” (po, 20 mg/kg), the concentration peaked (Cmax) at 5.4 ± 0.4 µM, the Tmax was 0.5 h and the half-life was 23.4 ± 2.5 h. Besides, the “90% minimum inhibitory concentration (MIC90)” value in the series with Mtb H37Rv is 1.61 µM. Moreover, in series [3], the IC50 is 20 µM.
Turning to `CCCCCCCCCCOc1cc2c(=O)c(C(=O)NCCNCCO)cn(CC)c2cc1OCC` [RMB043], the logD in “physchem” amounted to 0.84. This compound had a fraction unbound at 4 h, 1 μg/mL in “in vitro [1]” (human, microsomes) of 0.053. In addition, the fraction unbound at 4 h, 1 μg/mL in the series “in vitro [1]” (setting [4]) was determined as 0.23. This compound showed a free fraction (fraction unbound) at 4 h, 1 μg/mL in the series “in vitro [1]” (setting [5]) of 0.221. In “in vitro [1]” (microsomes), this compound showed a fraction unbound at 4 h, 1 μg/mL of 0.06. Moreover, in “in vitro [2]”, the “EH (hepatic extraction ratio) Human” value came out at 0.4 and the “EH (hepatic extraction ratio) Mouse” value is reported as 0.51. In addition, in “in vitro [2]” (human), the half-life at 0.1 M came out at 1.42 h and the microsomal CLint at 0.1 M was determined as 83 µL/min/mg. In addition, in “in vitro [2]” (mouse), the half-life at 0.1 M was 1 h and the microsomal CLint at 0.1 M turned out to be 109 µL/min/mg. In the series “in vivo” (iv, 5 mg/kg), the Vd was 4.6 ± 1.6 L/kg, the clearance is 1.18 mL/min/kg, the half-life is 8.6 ± 0.4 h and the “t1/2” value amounted to 8.6 ± 0.4 h. This compound showed an AUC in “in vivo” (iv, 5 mg/kg) of 10068.4 ± 127.8 µmol·min/L. Further, in “in vivo” (po, 20 mg/kg), the Cmax was 5.6 ± 1.4 µM, the Tmax was found to be 0.5 h and the half-life is 6.2 ± 0.8 h. The “90% minimum inhibitory concentration (MIC90)” value in the series with Mtb H37Rv was 4.18 µM. Moreover, the IC50 in series [3] was 80 µM.
In turn, `CCCCCCCCCCOc1cc2c(=O)c(C(=O)NCCOCCO)cn(CCO)c2cc1OCC` [RMB073] registered a logD in “physchem” of 0.36. In addition, the fraction unbound at 4 h, 1 μg/mL in “in vitro [1]” (human, microsomes) was 0.114. In “in vitro [1]” (setting [4]), this compound registered a fraction unbound at 4 h, 1 μg/mL of 0.16. Also, the fraction unbound at 4 h, 1 μg/mL in “in vitro [1]” (setting [5]) was 0.156. This compound gave a fraction unbound at 4 h, 1 μg/mL in the series “in vitro [1]” (microsomes) of 0.11. Moreover, in “in vitro [2]”, the “EH (hepatic extraction ratio) Human” value is on record as less than 0.43 and the “EH (hepatic extraction ratio) Mouse” value was less than 0.3. In “in vitro [2]” (human), the half-life at 0.1 M is greater than 2.5 h and the microsomal CLint at 0.1 M came to 7.78 µL/min/mg. In the series “in vitro [2]” (mouse), this compound came in with a half-life at 0.1 M greater than 2.5 h and a microsomal CLint at 0.1 M of 15 µL/min/mg. In “in vivo” (iv, 5 mg/kg), the Vd came to 3.9 ± 0.5 L/kg, the clearance is 0.575 mL/min/kg, the half-life is 15.3 ± 3.2 h and the “t1/2” value was 15.3 ± 3.2 h. The compound further showed an AUC in “in vivo” (iv, 5 mg/kg) of 15940.0 ± 400.0 µmol·min/L. For the same compound, in “in vivo” (po, 20 mg/kg), the concentration peaked (Cmax) at 2 ± 0.03 µM, the Tmax came out at 0.5 h and the half-life is 11.6 ± 1.3 h. In addition, the “90% minimum inhibitory concentration (MIC90)” value with Mtb H37Rv is 1.88 µM. For the same compound, in series [3], the IC50 is 33.9 µM.
